Results taken from PMC6271978, “1H-2,3-Dihydroperimidine Derivatives: A New Class of Potent Protein Tyrosine Phosphatase 1B Inhibitors” (Molecules, 2013).

What was measured:
SHP-2 = biological target: T1, SHP-2 (Homo sapiens, UniProt Q06124); assay: SHP-2 inhibition, OMFP substrate assay; type: biochemical
T1 construct: made in house
T1 sequence (Q06124 1-593): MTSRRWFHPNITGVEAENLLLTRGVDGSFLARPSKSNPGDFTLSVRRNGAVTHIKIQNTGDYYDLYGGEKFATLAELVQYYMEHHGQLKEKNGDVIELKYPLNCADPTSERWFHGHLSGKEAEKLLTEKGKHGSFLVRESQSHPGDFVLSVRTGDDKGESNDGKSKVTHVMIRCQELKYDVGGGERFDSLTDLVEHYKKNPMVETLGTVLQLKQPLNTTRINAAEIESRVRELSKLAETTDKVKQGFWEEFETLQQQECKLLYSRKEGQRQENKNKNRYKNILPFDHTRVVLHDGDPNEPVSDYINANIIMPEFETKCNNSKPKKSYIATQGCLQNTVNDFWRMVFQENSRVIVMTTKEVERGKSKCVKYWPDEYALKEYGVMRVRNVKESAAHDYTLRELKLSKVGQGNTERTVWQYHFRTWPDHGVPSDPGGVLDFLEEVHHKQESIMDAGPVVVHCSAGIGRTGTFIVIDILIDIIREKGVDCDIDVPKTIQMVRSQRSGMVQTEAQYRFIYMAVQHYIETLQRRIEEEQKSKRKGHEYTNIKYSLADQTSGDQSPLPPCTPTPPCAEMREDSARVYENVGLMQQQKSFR
Experimental: (§1) In addition to potency improvements, we investigated the selectivity of three representative compounds, namely, 1, 46 and 49 against other PTPs (TCPTP, SHP-1, SHP-2, LAR). […] Besides TCPTP, we tested the inhibitory activity of these compounds on other three homogenous enzymes SHP-1, SHP-2, and LAR [25].
(§2) A colorimetric assay to measure inhibition against PTP1B and TCPTP was performed in 96-well plates. Briefly, the tested compounds were solubilized in DMSO and serially diluted into concentrations for the inhibitory test. The assays were carried out in a final volume of 100 μL containing 50 mmol/L MOPS, pH 6.5, 2 mmol/L pNPP, 30 nmol/L GST-PTP1B or GST-TCPTP,and 2% DMSO, and the catalysis of pNPP was continuously monitored on a SpectraMax 340 microplate reader at 405 nm for 3 min at 30 °C. The IC50 value was calculated from the nonlinear curve fitting of the percent inhibition [inhibition (%)] vs. the inhibitor concentration using the Equation (1): Inhibition (%) = 100/[1 + (IC50/[I]k)] (1) where k is the Hill coefficient. To study the inhibition on the other PTPase family members, SHP1, SHP2 and LAR were prepared and assays were performed according to procedures described previously. Briefly, the enzymatic activity of the SHP1, SHP2 and LARwere determined at 30 °C by monitoring the dephosphorylation of substrate 3-o-methylfluorescein phosphate (OMFP), product was then detected at a 485 nm excitation wavelength and 530 nm emission wavelength by the EnVision multilabe plate reader (Perkin-Elmer Life Sciences, Boston, MA, USA). The assays were carried out in a final volume of 50 μL containing 50 mmol/L MOPS, pH 6.8, 10 μmol/L OMFP, 20 nmol/L recombinant enzyme, 2 mmol/L dithiothreitol , 1 mmol/L EDTA, and 2% DMSO. The initial rate of the dephosphorylation was presented by the early linear region of the enzymatic reaction kinetic curve, the inhibitory activity of the compound was continuously monitored.

LAR = biological target: T2, LAR (Homo sapiens, UniProt P10586); assay: LAR inhibition, OMFP substrate assay; type: biochemical; settings: NA = no activity (inhibitory ratio lower than 50% at the dose of 20 μg/mL), PC = Na3VO4
T2 sequence (P10586 1352-1607 limits assumed): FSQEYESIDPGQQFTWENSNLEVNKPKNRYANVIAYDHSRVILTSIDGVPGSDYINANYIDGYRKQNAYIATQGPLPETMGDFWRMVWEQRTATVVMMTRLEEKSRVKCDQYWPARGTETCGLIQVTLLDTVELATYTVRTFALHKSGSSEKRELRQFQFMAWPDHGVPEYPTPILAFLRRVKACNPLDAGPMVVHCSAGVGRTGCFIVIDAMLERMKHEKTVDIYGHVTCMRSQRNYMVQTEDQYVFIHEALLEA
Experimental: as §1
as §2, with “To study the inhibition on the other PTPase family members, SHP1, SHP2 and LAR were prepared and assays were performed according to procedures described previously.” left out, “The assays were carried out in a final volume of 50 μL containing 50 mmol/L MOPS, pH 6.8, 10 μmol/L OMFP, 20 nmol/L recombinant enzyme, 2 mmol/L dithiothreitol , 1 mmol/L EDTA, and 2% DMSO. The initial rate of the dephosphorylation was presented by the early linear region of the enzymatic reaction kinetic curve, the inhibitory activity of the compound was continuously monitored.” left out

[1] = test system: tyrosine phosphorylation of insulin receptor β in CHO/hIR cells; assay: Tyrosine phosphorylation of insulin receptor in CHO/hIR cells (Western blot); type: cell-based, hamster CHO cells expressing human insulin receptor; settings: compound 5 µM to 20 µM for 3 h, insulin 10 nM 10 min, versus DMSO
Experimental: To explore the effect of PTP1B inhibitor in vitro on insulin signaling, CHO cells overexpressing human insulin receptor (CHO/hIR) were treated in presence or absence of compound, then tyrosine phosphorylation level of insulin receptor (p-IR) was detected after stimulated by insulin.
CHO/hIR cells were cultured in F12 nutrient medium including 10% (V/V) FBS, 100 units/mL penicillin and 100 μg/mL streptomycin with 5% CO2 at 37 °C. Cells were serum free starved for 2 h, and then treated with compounds for 3 h, followed with insulin (10 nM, Eli Lilly) for 10 min before harvested. Cells were rinsed twice with precooled 1× PBS and then lysed with 1× SDS loading buffer. Samples were heated at 100 °C for 15 min before electrophoresed with 8% SDS-polyarylamide gel under 80 to 120 volt voltage, and then transferred to nitrocellulose (NC) membranes. NC membranes were blocked for 2 h with 5% BSA (W/V) dissolved in TBST. The membranes incubated with primary antibodies overnight at 4 °C and secondary antibodies for 1 h at room temperature. The primary antibody p-Tyr (PY20) used was from Santa Cruz (Dallas, CA, USA) and β-actin from Sigma (St. Louis, MO, USA), secondary antibody was from Jackson Immuno Research (Philadelphia, PA, USA).

O=C(O)CNC(=O)c1ccc(C2Nc3cccc4cccc(c34)N2)nc1 [Compound 46]
IC50 (SHP-2; OMFP substrate, means ± SD of three replications, PC = Na3VO4): 5.95 ± 0.29 µM
selectivity for PTP1B over SHP-2 (SHP-2; from IC50 values): about 9 fold
IC50 LAR (LAR): no visible activities
tyrosine phosphorylation level of insulin receptor (p-IR) [1]: greatly improved p-IR level
